Activity calls are given as the source filed them.
Columns and labels:
[1] = test system: Streptococcus sp. 'group A'; test: Streptococcus pyogenes SK(-)GAS viability under kanamycin – luminescence, BacTiterGlo, confirmation, counter-screen for streptokinase expression inhibitor project, dose response (AID 1900); assay type: functional, organism-based
[2] = target: T1, Streptokinase A (Streptococcus pyogenes serotype M1, UniProt P10520); test: viability-normalized secreted streptokinase activity reduction – plasminogen activation absorbance, OD405, dose response (AID 1914); assay type: functional, Streptococcus pyogenes M1 GAS;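 note: secreted streptokinase activity via plasminogen activation per viability signal from cell pellet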
T1 sequence (P10520 whole entry): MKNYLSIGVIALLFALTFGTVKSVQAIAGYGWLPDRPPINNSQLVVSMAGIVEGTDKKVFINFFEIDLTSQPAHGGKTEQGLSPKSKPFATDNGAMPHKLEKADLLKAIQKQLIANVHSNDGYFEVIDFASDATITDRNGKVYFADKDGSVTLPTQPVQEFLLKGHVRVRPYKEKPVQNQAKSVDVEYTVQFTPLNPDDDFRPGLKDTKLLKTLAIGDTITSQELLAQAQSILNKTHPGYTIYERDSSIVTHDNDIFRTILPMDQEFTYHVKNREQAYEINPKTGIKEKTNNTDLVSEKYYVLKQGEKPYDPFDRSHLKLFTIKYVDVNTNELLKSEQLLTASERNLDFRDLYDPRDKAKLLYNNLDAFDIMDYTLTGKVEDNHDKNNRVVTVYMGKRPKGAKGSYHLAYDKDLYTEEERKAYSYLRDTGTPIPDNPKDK

[3] = test system: Streptococcus; test: GAS UMAA2166 growth inhibition – luminescence, BacTiterGlo, counter-screen for streptokinase expression inhibitor project, dose response (AID 1915); assay type: functional, organism-based;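 note: potency for reduction of bacterial viability or growth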
[4] = target: T2, Heat shock factor protein 1 (Mus musculus, UniProt P38532); test: decrease of HSF1-responsive luciferase luminescence – cell-based, NIH3T3, dose retest, confirmation (AID 2382); assay type: functional;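 note: NIH3T3 fibroblasts with HSF1-driven luciferase reporter stressed by proteasome inhibitor MG132; luminescence from HSF1-driven luciferase expression after 8 hours of MG132 stress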
T2 sequence (P38532 whole entry): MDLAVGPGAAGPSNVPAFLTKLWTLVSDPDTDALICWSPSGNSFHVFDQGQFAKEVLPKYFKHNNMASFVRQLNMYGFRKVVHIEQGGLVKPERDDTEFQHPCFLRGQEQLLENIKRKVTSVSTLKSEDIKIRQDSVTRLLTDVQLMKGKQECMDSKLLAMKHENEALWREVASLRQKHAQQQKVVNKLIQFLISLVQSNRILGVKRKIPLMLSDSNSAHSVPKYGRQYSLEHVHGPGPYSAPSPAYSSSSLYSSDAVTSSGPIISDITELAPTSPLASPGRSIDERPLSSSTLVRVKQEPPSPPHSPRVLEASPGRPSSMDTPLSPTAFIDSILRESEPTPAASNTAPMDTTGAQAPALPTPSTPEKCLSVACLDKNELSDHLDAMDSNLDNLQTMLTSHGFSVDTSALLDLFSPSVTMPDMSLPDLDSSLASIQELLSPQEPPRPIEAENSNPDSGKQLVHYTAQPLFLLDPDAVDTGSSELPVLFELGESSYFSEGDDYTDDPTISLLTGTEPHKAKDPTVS

[5] = target: T2, Heat shock factor protein 1; test: enhancement of HSF1-driven luciferase signal – cell-based, NIH3T3, luminescence, dose retest, confirmation (AID 435004); assay type: functional;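 note: stress induced by proteasome inhibitor MG132 added 30 min after compound; luciferase reporter driven by HSF1 response element in NIH3T3 cells; actives raise luminescence as potentiators of the MG132 stress response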
[6] = target: Cytochrome P450 2C19 (Homo sapiens, UniProt P33261); test: Cytochrome panel assay with activity outcomes. Panel member name: p450-cyp2c19 Compounds with AC50 equal or less than 10 uM are considered active; assay type: functional; details: read-out: AC50
Cytochrome P450 2C19, sequence (P33261 whole entry): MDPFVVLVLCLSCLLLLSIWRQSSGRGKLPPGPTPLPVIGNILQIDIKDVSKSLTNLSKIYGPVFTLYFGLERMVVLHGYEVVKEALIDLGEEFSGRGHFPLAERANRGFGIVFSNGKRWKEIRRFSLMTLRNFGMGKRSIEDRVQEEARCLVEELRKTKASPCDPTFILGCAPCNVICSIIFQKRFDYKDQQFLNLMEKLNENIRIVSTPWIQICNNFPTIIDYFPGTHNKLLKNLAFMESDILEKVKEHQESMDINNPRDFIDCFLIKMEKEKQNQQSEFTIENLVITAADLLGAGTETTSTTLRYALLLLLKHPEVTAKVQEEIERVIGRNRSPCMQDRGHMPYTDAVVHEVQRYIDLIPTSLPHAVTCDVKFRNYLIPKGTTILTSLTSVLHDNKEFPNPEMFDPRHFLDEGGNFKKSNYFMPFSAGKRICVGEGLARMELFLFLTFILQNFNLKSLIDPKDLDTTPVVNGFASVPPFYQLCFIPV

`COc1ccccc1-c1[nH]nc2c1[C@H](C)CC[C@H]2C(C)C` was tested. Which EC50 [1] did it give?
Its EC50 is 10.9 µM (active).

What about the EC50 [2] of the same compound?
Its EC50 is > 150 µM (not active).

And the EC50 [3]?
Its EC50 is > 150 µM (not active).

Which EC50 [4] does the source give for `O=C(c1ccccc1)c1ccc(OCC(O)CN2CCCC2)cc1` (configuration not stated) here?
The EC50 was > 195 µM (not active).

For `Cc1c(Cl)cccc1NC(=O)c1cccc(OC(F)F)c1`, which EC50 [4] is on record?
Its EC50 is > 195 µM (not active).

For `N#Cc1cc(-c2ccccc2)cnc1Sc1ccccc1`, which EC50 [5] is on record?
Its EC50 is > 260 µM (inactive).

`O=C(CSc1nnc(-c2c[nH]c3ccccc23)o1)c1ccccc1` was tested. Which EC50 [5] did it give?
Its EC50 is > 260 µM (inactive).

`COc1ccc(NC(=O)CSc2nnc3ccc(-c4ccncc4)nn23)cc1OC` was tested. Which EC50 [4] did it give?
The EC50 was > 195 µM (not active).

What does the source list for `c1ccc(-c2nc(C3CCCCC3)c3ccccc3n2)cc1`?
EC50 [1]: 3.71 µM (active); EC50 [2]: 21.6 µM (active); EC50 [3]: 25.2 µM (active)

With `COC(=O)[C@@H](NC(=O)NC1CCCc2ccccc21)C(C)C` (some centres not stated) as the compound, how does the EC50 [5] read?
Its EC50 is > 260 µM (inactive).

`CCOC(=O)c1c(C)nc2c(C)cccn12` was tested. Which EC50 [4] did it give?
The EC50 was > 195 µM (not active).

`COc1ccc(S(=O)(=O)Nc2ccncc2)c(C)c1C` was tested. Which EC50 [5] did it give?
The EC50 was > 260 µM (inactive).

Which EC50 [4] does the source give for `COc1ccc(-c2oc3ccccc3c2C(=O)Oc2ccccc2)cc1` here?
The EC50 was 152 µM (active).

With `O=C(Nc1ccc(F)c(Cl)c1)Nc1csc2ccccc12` as the compound, how does the EC50 [1] read?
Its EC50 is 6.52 µM (active).

And the EC50 [2]?
Its EC50 is > 50 µM (not active).

And the EC50 [3]?
Its EC50 is 5.69 µM (active).

How did the EC50 [5] turn out when `Cc1sc2nc(C3CC3)nc(SCC(=O)N3CCc4ccccc4C3)c2c1C` was run?
Its EC50 is 28.6 µM (active).

How did the EC50 [5] turn out when `CCCc1n[nH]c2c1C1(C(=O)N(Cc3ccccc3)c3ccccc31)C(C(=O)OC)=C(N)O2` (configuration not stated) was run?
Its EC50 is > 260 µM (inactive).

Which EC50 [4] does the source give for `Cc1ccc(NC(=O)NC2=N/C(=C(/C#N)C(=O)N3CCCC3)c3ccccc32)cc1` here?
The EC50 was > 195 µM (not active).

For `O=[N+]([O-])c1ccc(N2CCNCC2)cc1NCC1CCCO1` (configuration not stated), which EC50 [4] is on record?
The EC50 was > 195 µM (not active).

What about the AC50 [6] of the same compound?
Its AC50 is 39.8 µM (inconclusive).

With `O=C(CNC(=O)c1ccco1)Nc1ccc2c(c1)OCCO2` as the compound, how does the EC50 [4] read?
The EC50 was 0.274 µM (active).

Which EC50 [1] does the source give for `COc1ccccc1N1CC(C(=O)Nc2nnc(SCC(=O)N3CCCC3)s2)CC1=O` (configuration not stated) here?
The EC50 was > 150 µM (not active).

What about the EC50 [2] of the same compound?
Its EC50 is > 150 µM (not active).

What about the EC50 [3] of the same compound?
Its EC50 is > 150 µM (not active).

Which EC50 [1] does the source give for `COc1ccc(C2/C=C\CN(C(=O)c3ccccc3)CC(=O)N2Cc2ccc(F)cc2)cc1` (configuration not stated) here?
Its EC50 is > 150 µM (not active).

What about the EC50 [2] of the same compound?
Its EC50 is > 150 µM (not active).

What about the EC50 [3] of the same compound?
Its EC50 is > 150 µM (not active).

Which EC50 [5] does the source give for `COc1cccc(NN=C2C(=O)NC(=S)NC2=O)c1` here?
Its EC50 is 9.18 µM (active).

`CC(=O)Oc1ccc(Cn2cnc3cc4ccccc4cc32)cc1` was tested. Which EC50 [5] did it give?
The EC50 was 44.4 µM (active).

With `Cc1cc(C)cc(OCC(O)CN2CCN(C(=O)c3ccco3)CC2)c1` (configuration not stated) as the compound, how does the EC50 [4] read?
Its EC50 is > 195 µM (not active).

Which EC50 [4] does the source give for `O=[N+]([O-])c1ccc(NCCOc2ccccc2Cl)nc1` here?
The EC50 was > 195 µM (not active).

For `CC(C)C[C@H](NC(=O)c1[nH]cnc1C(=O)N[C@@H](C)C(=O)OC(C)(C)C)C(=O)OCc1ccccc1`, which EC50 [1] is on record?
Its EC50 is 8.12 µM (active).

What about the EC50 [2] of the same compound?
The EC50 was > 150 µM (not active).

What about the EC50 [3] of the same compound?
Its EC50 is 40.9 µM (active).

For `C=CCn1/c(=N/C(=O)C2CC2)sc2cc(NC(C)=O)ccc21`, which EC50 [4] is on record?
The EC50 was > 195 µM (not active).

For `O=c1c2cccnc2n(-c2ccccc2)n1Cc1c(Cl)cccc1Cl`, which EC50 [4] is on record?
Its EC50 is > 195 µM (not active).

With `N=c1c(S(=O)(=O)c2ccc(Br)cc2)cc2c(=O)n3ccccc3nc2n1C1CCCC1` as the compound, how does the EC50 [5] read?
The EC50 was > 260 µM (inactive).

Which results are given for `CN(CC1CCCO1)S(=O)(=O)c1ccc(C(=O)Nc2ccccc2F)cc1` (configuration not stated)?
EC50 [1]: > 150 µM (not active); EC50 [2]: > 150 µM (not active); EC50 [3]: > 150 µM (not active)

Which EC50 [1] does the source give for `CCCCCCCN1N=C(C)C(C(=O)c2ccccc2)C1=O` (configuration not stated) here?
The EC50 was 2.89 µM (active).

What about the EC50 [2] of the same compound?
Its EC50 is > 150 µM (not active).

And the EC50 [3]?
Its EC50 is 30.9 µM (active).

How did the EC50 [5] turn out when `CCc1nnc(NC(=O)C(NC(=O)c2ccccc2Cl)C(C)C)s1` (configuration not stated) was run?
Its EC50 is > 260 µM (inactive).

— ChEMBL document CHEMBL1201862, “PubChem BioAssay data set” (2004)
